The NIST ThermoML archive (doi:10.1016/j.jct.2019.02.012)

Assay: mn = molality of the nth substance listed, in mol/kg
Conditions: 100 kPa, Liquid, Pycnometric method

O=C(O)[C@@H]1CCCN1 [L-proline] + O
mass density [kg/m3]
Conditions	298.15 K	303.15 K	308.15 K	313.15 K	318.15 K
m1 = 0.025	997.86	996.45	994.82	992.99	991.02
m1 = 0.05	998.65	997.24	995.6	993.77	991.79
m1 = 0.075	999.43	998.01	996.37	994.53	992.55
m1 = 0.1	1000.2	998.77	997.12	995.28	993.29
m1 = 0.125	1000.96	999.52	997.86	996.01	994.02

CN(C)C(=N)NC(=N)N.Cl [N,N-dimethylimidodicarbonimidic diamide hydrochloride] + O
mass density [kg/m3]
Conditions	298.15 K	303.15 K	308.15 K	313.15 K	318.15 K
m1 = 0.05	998.89	997.46	995.83	993.99	992.01
m1 = 0.1	1000.77	999.32	997.67	995.82	993.83
m1 = 0.15	1002.66	1001.21	999.56	997.69	995.69
m1 = 0.2	1004.6	1003.12	1001.46	999.59	997.6
